Where a name gives a salt, the structure may show the parent alone.
Biological target: T1, PDE4B (human recombinant) (Homo sapiens, UniProt Q07343)
T1 construct: made in house
Test: Inhibition of PDE4B activity: SPA and/or Fluorescence Polarisation (FP) assay
Assay type: biochemical
Details: one reading (n=1) or average of 2 or more readings, read-out: PDE4B pIC50 (±about 0.5) (converted)
How it was run: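 Human recombinant PDE4B activity measured by SPA with [3H]cAMP at about 10 nM, 1 h at ambient temperature, enzyme set for ≤20% substrate hydrolysis, or by IMAP FP with Fl-cAMP at about 40 nM, 40 min at ambient temperature under linear conditions. Inhibition curves fitted; values reported as pIC50.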

T1 sequence (Q07343 1-564 isoform Q07343-2): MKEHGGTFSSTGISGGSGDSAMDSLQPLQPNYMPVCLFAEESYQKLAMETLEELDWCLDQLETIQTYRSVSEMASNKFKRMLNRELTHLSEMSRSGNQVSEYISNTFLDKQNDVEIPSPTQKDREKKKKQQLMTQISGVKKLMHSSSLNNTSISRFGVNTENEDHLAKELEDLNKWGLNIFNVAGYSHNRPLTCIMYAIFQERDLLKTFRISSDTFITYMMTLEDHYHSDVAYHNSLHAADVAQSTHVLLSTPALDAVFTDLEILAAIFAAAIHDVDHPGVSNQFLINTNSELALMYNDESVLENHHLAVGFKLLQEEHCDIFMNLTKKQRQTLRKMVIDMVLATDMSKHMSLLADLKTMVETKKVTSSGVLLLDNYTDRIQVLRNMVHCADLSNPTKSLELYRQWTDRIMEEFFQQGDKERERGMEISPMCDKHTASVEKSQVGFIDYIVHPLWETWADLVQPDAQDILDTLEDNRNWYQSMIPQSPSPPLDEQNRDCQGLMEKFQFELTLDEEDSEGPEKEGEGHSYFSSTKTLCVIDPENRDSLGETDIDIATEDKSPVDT

With `CCn1ncc2c(NC3CCOCC3)c(CNC(=O)c3ccc(C(F)(F)F)o3)c(C)nc21` [Example 324, N-{[1-ethyl-6-methyl-4-(tetrahydro-2H-pyran-4-ylamino)-1H-pyrazolo[3,4-b]pyridin-5-yl]methyl}-5-(trifluoromethyl)-2-furancarboxamide] the IC50 was 0.126 to 1 nM.

Compound `CCn1ncc2c(NC3CCN(C(N)=O)CC3)c(CNC(=O)c3cccc4c3OCC4)c(C)nc21` [Example 270, 4-[(5-{[(2,3-dihydro-1-benzofuran-7-ylcarbonyl)amino]methyl}-1-ethyl-6-methyl-1H-pyrazolo[3,4-b]pyridin-4-yl)amino]-1-piperidinecarboxamide] has an IC50 of 0.01 to 0.1 nM.

`CCc1nc2c(cnn2CC)c(NC2CCN(C(N)=O)CC2)c1CNC(=O)c1ccc(N2CCCC2=O)cc1` [Example 209, 4-({1,6-diethyl-5-[({[4-(2-oxo-1-pyrrolidinyl)phenyl]carbonyl}amino)methyl]-1H-pyrazolo[3,4-b]pyridin-4-yl}amino)-1-piperidinecarboxamide] showed an IC50 of 0.01 to 0.1 nM.

`CCc1nc2c(cnn2CC)c(NC2CCN(C(N)=O)CC2)c1CNC(=O)c1ccc(N2CCOCC2)cc1` [Example 207, 4-({1,6-diethyl-5-[({[4-(4-morpholinyl)phenyl]carbonyl}amino)methyl]-1H-pyrazolo[3,4-b]pyridin-4-yl}amino)-1-piperidinecarboxamide] was tested, and the IC50 was 0.01 to 0.1 nM.

`CCc1nc2c(cnn2CC)c(NC2CCOCC2)c1CNC(=O)c1cccc(N2CCOCC2)c1` [Example 190, N-{[1,6-diethyl-4-(tetrahydro-2H-pyran-4-ylamino)-1H-pyrazolo[3,4-b]pyridin-5-yl]methyl}-3-(4-morpholinyl)benzamide] gave an IC50 of 0.01 to 0.1 nM.

`CCc1nc2c(cnn2CC)c(NC2CCN(C(N)=O)CC2)c1CNC(=O)c1ccc(C(C)(C)C)cc1O` [Example 302, 4-({5-[({[4-(1,1-dimethylethyl)-2-hydroxyphenyl]carbonyl}amino)-methyl]-1,6-diethyl-1H-pyrazolo[3,4-b]pyridin-4-yl}amino)-1-piperidine-carboxamide Formate] gave an IC50 of 0.01 to 0.1 nM.

`CCn1ncc2c(NC3CCOCC3)c(CNC(=O)c3ccc4c(c3)CCCS4(=O)=O)c(C)nc21` [Example 287, N-{[1-ethyl-6-methyl-4-(tetrahydro-2H-pyran-4-ylamino)-1H-pyrazolo[3,4-b]pyridin-5-yl]methyl}-3,4-dihydro-2H-1-benzothiopyran-6-carboxamide 1,1-dioxide] was tested, and the IC50 was 0.126 to 1 nM.

Work on `CCn1ncc2c(NC3CCOCC3)c(CNC(=O)c3ccsc3)c(C)nc21` [Example 227, N-{[1-ethyl-6-methyl-4-(tetrahydro-2H-pyran-4-ylamino)-1H-pyrazolo[3,4-b]pyridin-5-yl]methyl}-3-thiophenecarboxamide] yielded an IC50 of 0.126 to 1 nM.

Compound `CCc1nc2c(cnn2CC)c(NC2CCOCC2)c1CNC(=O)c1ccco1` [Example 153, N-{[1,6-diethyl-4-(tetrahydro-2H-pyran-4-ylamino)-1H-pyrazolo[3,4-b]pyridin-5-yl]methyl}-2-furancarboxamide] has an IC50 of 0.01 to 0.1 nM.

`CCc1nc2c(cnn2CC)c(NC2CCOCC2)c1CNC(=O)c1cc(S(=O)(=O)c2ccccc2)ccc1OC` [Example 179, N-{[1,6-diethyl-4-(tetrahydro-2H-pyran-4-ylamino)-1H-pyrazolo[3,4-b]pyridin-5-yl]methyl}-2-(methyloxy)-5-(phenylsulfonyl)benzamide] was tested, and the IC50 was 0.01 to 0.1 nM.

Compound `CCc1nc2c(cnn2CC)c(NC2CCOCC2)c1CNC(=O)c1cccc(NC(C)=O)c1` [Example 147, 3-(acetylamino)-N-{[1,6-diethyl-4-(tetrahydro-2H-pyran-4-ylamino)-1H-pyrazolo[3,4-b]pyridin-5-yl]methyl}benzamide] has an IC50 of 0.01 to 0.1 nM.

For `CCc1nc2c(cnn2CC)c(NC2CCOCC2)c1CNC(=O)C1CCCO1` (stereo not shown) [Example 156, N-{[1,6-diethyl-4-(tetrahydro-2H-pyran-4-ylamino)-1H-pyrazolo[3,4-b]pyridin-5-yl]methyl}tetrahydro-2-furancarboxamide], the IC50 was 0.126 to 1 nM.

Compound `CCOc1ncccc1C(=O)NCc1c(CC)nc2c(cnn2CC)c1NC1CCOCC1` [Example 159, N-{[1,6-diethyl-4-(tetrahydro-2H-pyran-4-ylamino)-1H-pyrazolo[3,4-b]pyridin-5-yl]methyl}-2-(ethyloxy)-3-pyridinecarboxamide] has an IC50 of 0.01 to 0.1 nM.

`CCc1nc2c(cnn2CC)c(NC2CCN(C(N)=O)CC2)c1CN1Cc2ccccc2C1=O` [Example 212, [4-({1,6-diethyl-5-[(1-oxo-1,3-dihydro-2H-isoindol-2-yl)methyl]-1H-pyrazolo[3,4-b]pyridin-4-yl}amino)-1-piperidinecarboxamide], Formate] gave an IC50 of 0.01 to 0.1 nM.

`CCc1nc2c(cnn2CC)c(NC2CCOCC2)c1CNC(=O)c1ccc(C(F)(F)F)o1` [Example 323, N-{[1,6-diethyl-4-(tetrahydro-2H-pyran-4-ylamino)-1H-pyrazolo[3,4-b]pyridin-5-yl]methyl}-5-(trifluoromethyl)-2-furancarboxamide] showed an IC50 of 0.01 to 0.1 nM.

With `CCn1ncc2c(NC3CCOCC3)c(CNC(=O)c3ccc(S(C)(=O)=O)cc3)c(C)nc21` [Example 124, N-{[1-ethyl-6-methyl-4-(tetrahydro-2H-pyran-4-ylamino)-1H-pyrazolo[3,4-b]pyridin-5-yl]methyl}-4-(methylsulfonyl)benzamide] the IC50 was 0.126 to 1 nM.

`CCc1nc2c(cnn2CC)c(NC2CCOCC2)c1CN1Cc2ccccc2C1=O` [Example 199, 2-{[1,6-diethyl-4-(tetrahydro-2H-pyran-4-ylamino)-1H-pyrazolo[3,4-b]pyridin-5-yl]methyl}-2,3-dihydro-1H-isoindol-1-one] was tested, and the IC50 was 0.01 to 0.1 nM.

With `CCc1nc2c(cnn2CC)c(NC2CCOCC2)c1CNC(=O)c1oc(C)nc1C` [Example 335, N-{[1,6-diethyl-4-(tetrahydro-2H-pyran-4-ylamino)-1H-pyrazolo[3,4-b]pyridin-5-yl]methyl}-2,4-dimethyl-1,3-oxazole-5-carboxamide formate] the IC50 was 0.126 to 1 nM.

`CCn1ncc2c(NC3CCOCC3)c(CNC(=O)c3ccc(F)cc3)c(C)nc21` [Example 313, N-{[1-ethyl-6-methyl-4-(tetrahydro-2H-pyran-4-ylamino)-1H-pyrazolo[3,4-b]pyridin-5-yl]methyl}-4-fluorobenzamide] gave an IC50 of 0.126 to 1 nM.

`CCn1ncc2c(NC3CCN(C(N)=O)CC3)c(CNC(=O)c3ccc(C(C)(C)C)cc3O)c(C)nc21` [Example 272, 4-({5-[({(4-(1,1-dimethylethyl)-2-hydroxyphenyl]carbonyl}amino)methyl}-1-ethyl-6-methyl-1H-pyrazolo[3,4-b]pyridin-4-yl)amino}-1-piperidinecarboxamide] was tested, and the IC50 was 0.01 to 0.1 nM.

Compound `CCc1nc2c(cnn2CC)c(NC2CCOCC2)c1CNC(=O)c1ccc(N2CCCC2=O)cc1` [Example 178, N-{[1,6-diethyl-4-(tetrahydro-2H-pyran-4-ylamino)-1H-pyrazolo[3,4-b]pyridin-5-yl]methyl}-4-(2-oxo-1-pyrrolidinyl)benzamide] has an IC50 of 0.01 to 0.1 nM.

`CCn1ncc2c(NC3CCOCC3)c(CNC(=O)c3cnc(C(C)C)nc3)c(C)nc21` [Example 347, N-{[1-ethyl-6-methyl-4-(tetrahydro-2H-pyran-4-ylamino)-1H-pyrazolo[3,4-b]pyridin-5-yl]methyl}-2-(1-methylethyl)-5-pyrimidinecarboxamide] showed an IC50 of 0.126 to 1 nM.

— patent publication US20090131431A1, “Pyrazolo[3,4-b]pyridine compounds, and their use as a PDE4 inhibitors” (priority 2005, published 2009)
